Test results reported in US12545673B2, “Imidazopyridine derivative and pharmaceutical composition comprising same as active ingredient” (TSD LIFE SCIENCES CO., LTD., priority 2019, dated 2026).
Where two headings read alike, the source gives them in different places.

Assays:
[1] = target: LRRK2 mutant (G2019S) (Homo sapiens (Human), UniProt Q5S007, G2019S); test: Evaluation of inhibitory activity against LRRK2 (affinity bead competition binding), G2019S mutant; conditions: read-out: Residual active values (%) LRRK2(G2019S)
Procedure: (§1) In order to identify the activity inhibitory effect on the LRRK2 wild-type and LRRK2 mutant (G2019S) kinase of the example compound according to the present disclosure, BL21-derived E. coli bacteria (E. coli) were cultured in a 24-well plate until the growth phase (log phase). After culturing, T7 phage tagged with LRRK2 wild-type or LRRK2 mutant (G2019S) was used to infect the multiplicity of infection (MOI) at 0.4. Thereafter, the E. coli bacteria were stirred at 32° C. for 90 to 150 minutes to allow dissolution. The lysate of E. coli bacteria was centrifuged (6,000×g) and filtered (0.2 μm), and the obtained tagged T7 phage […] a DNA-tagged kinase protein (LRRK2 or LRRK2 G2019S) was obtained.
(§2) After blocking the biotinylated ligand with extra biotin, it is washed with Pierce's buffer, SeaBlock (1% BSA, 0.05% Tween 20, 1 mM DTT) to remove unbound ligand and reduce non-specific binding.
(§3) The compound was prepared at a concentration of 40× in 100% DMSO and used after dilution, and all binding reactions were performed in a final volume of 0.02 ml in a 384-well plate.
(§4) The activity inhibitory effect on the LRRK2 wild-type and LRRK2 mutant (G2019S) kinases of the example compounds according to the present disclosure was measured and shown in Table 10 below.

[2] = tested on: acute myeloid leukemia cell line U937; test: Cancer cell proliferation inhibitory activity evaluation 1 (CCK-8), U937; type: cell-based; conditions: Homo sapiens, U-937; 10 μM, 72 hours, CCK-8 (Table 2); read-out: Cancer cell proliferation inhibitory activity U937
Procedure: (§5) In order to identify whether the compound has anticancer activity, the human breast cancer cell line MDA-MB-231, the colorectal cancer cell line HT-29, the acute myeloid leukemia cell line U937, and the chronic myeloid leukemia cell line K562 were used. The cell line was cultured using RPMI-1640 medium containing 10% fetal bovine serum. Welgene products were used as the medium, and hyclone products were used for fetal bovine serum, and 1% of antibiotics for cell culture from Gibco were used as the culture medium.

[3] = tested on: human lung cancer cell line A549; test: Cancer cell proliferation inhibitory activity evaluation 2 (CCK-8), A549; type: cell-based; conditions: A549, 10 μM, 72 hours, CCK-8, read-out: Cancer cell proliferation inhibitory activity A549
[4] = tested on: gastric cancer cell line Hs746T; test: Cancer cell proliferation inhibitory activity evaluation 2 (CCK-8), Hs746T; type: cell-based; conditions: Homo sapiens, 10 μM, 72 hours, CCK-8, read-out: Cancer cell proliferation inhibitory activity Hs746T
[5] = target: LRRK2 wild-type (Homo sapiens (Human), UniProt Q5S007); test: Evaluation of inhibitory activity against LRRK2 (affinity bead competition binding), wild-type; conditions: read-out: Residual active values (%) LRRK2
Procedure: as §1, §2, §3, §4

[6] = tested on: TGF-β1; test: Fibrosis inhibition evaluation 2, palmitic acid-induced HepG2, real-time PCR, TGF-β1
[7] = tested on: human breast cancer cell line MDA-MB-231; test: Cancer cell proliferation inhibitory activity evaluation 1 (CCK-8), MDA-MB-231; type: cell-based; conditions: MDA-MB-231, 10 μM, 72 hours, CCK-8, read-out: Cancer cell proliferation inhibitory activity MDAMB231
Procedure: as §5

[8] = tested on: colorectal cancer cell line HT-29; test: Cancer cell proliferation inhibitory activity evaluation 1 (CCK-8), HT-29; type: cell-based; conditions: Homo sapiens, HT-29; 10 μM, 72 hours, CCK-8; read-out: Cancer cell proliferation inhibitory activity HT29
Procedure: as §5

[9] = tested on: acute lymphoblastic leukemia cell line Jurkat; test: Cancer cell proliferation inhibitory activity evaluation 2 (CCK-8), Jurkat; type: cell-based; conditions: Homo sapiens
[10] = tested on: chronic myeloid leukemia cell line K562; test: Cancer cell proliferation inhibitory activity evaluation 1 (CCK-8), K562; type: cell-based; conditions: Homo sapiens, K562; 10 μM, 72 hours, CCK-8; read-out: Cancer cell proliferation inhibitory activity K562
Procedure: as §5

[11] = tested on: Fibronectin-1; test: Fibrosis inhibition evaluation 2, palmitic acid-induced HepG2, real-time PCR, Fibronectin-1
[12] = tested on: acute myeloid leukemia cell line U937; test: Cancer cell proliferation inhibitory activity evaluation 2 (CCK-8), U937; type: cell-based; conditions: Homo sapiens, read-out: Cancer cell proliferation inhibitory activity U937
[13] = target: MLK3 (Homo sapiens (Human), UniProt Q16584); test: Evaluation of inhibitory activity of enzyme units, MLK3 ([γ-33P]-ATP filter assay)
[14] = target: MLK2 (Homo sapiens (Human), UniProt Q02779); test: Evaluation of inhibitory activity of enzyme units, MLK2 ([γ-33P]-ATP filter assay); type: biochemical
[15] = target: MLK1 (Homo sapiens (Human), UniProt P80192); test: Evaluation of inhibitory activity of enzyme units, MLK1 ([γ-33P]-ATP filter assay); type: biochemical
[16] = tested on: gastric cancer cell line AGS; test: Cancer cell proliferation inhibitory activity evaluation 2 (CCK-8), AGS; type: cell-based; conditions: Homo sapiens, read-out: Cancer cell proliferation inhibitory activity AGS
[17] = 10 μM, 72 hours, CCK-8, read-out: Cancer cell proliferation inhibitory activity Jurkat
[18] = U-937, 10 μM, 72 hours, CCK-8 (Table 3)

MLK3, sequence (Q16584 whole entry, looked up): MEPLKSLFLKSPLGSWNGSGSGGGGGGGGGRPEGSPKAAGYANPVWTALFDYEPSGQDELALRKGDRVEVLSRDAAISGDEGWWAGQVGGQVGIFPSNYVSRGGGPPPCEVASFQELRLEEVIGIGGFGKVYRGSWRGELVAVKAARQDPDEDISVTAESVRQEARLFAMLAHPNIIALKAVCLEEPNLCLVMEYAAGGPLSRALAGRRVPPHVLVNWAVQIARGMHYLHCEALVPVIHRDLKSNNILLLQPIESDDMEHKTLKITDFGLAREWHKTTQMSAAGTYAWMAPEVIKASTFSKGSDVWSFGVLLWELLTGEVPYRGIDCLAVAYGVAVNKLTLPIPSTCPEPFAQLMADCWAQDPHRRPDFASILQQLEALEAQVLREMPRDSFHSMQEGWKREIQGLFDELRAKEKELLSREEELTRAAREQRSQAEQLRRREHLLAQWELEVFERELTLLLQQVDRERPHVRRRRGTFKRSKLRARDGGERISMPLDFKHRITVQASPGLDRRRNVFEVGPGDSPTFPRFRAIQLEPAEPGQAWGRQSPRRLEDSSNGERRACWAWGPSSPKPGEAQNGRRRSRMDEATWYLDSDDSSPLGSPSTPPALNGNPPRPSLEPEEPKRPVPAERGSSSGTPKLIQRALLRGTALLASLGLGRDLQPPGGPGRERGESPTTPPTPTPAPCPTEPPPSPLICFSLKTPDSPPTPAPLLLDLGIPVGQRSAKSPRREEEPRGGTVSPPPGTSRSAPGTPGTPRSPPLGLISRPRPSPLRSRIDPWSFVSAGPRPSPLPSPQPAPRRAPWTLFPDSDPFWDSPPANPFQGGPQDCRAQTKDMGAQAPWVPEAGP
MLK2, sequence (Q02779 whole entry, looked up): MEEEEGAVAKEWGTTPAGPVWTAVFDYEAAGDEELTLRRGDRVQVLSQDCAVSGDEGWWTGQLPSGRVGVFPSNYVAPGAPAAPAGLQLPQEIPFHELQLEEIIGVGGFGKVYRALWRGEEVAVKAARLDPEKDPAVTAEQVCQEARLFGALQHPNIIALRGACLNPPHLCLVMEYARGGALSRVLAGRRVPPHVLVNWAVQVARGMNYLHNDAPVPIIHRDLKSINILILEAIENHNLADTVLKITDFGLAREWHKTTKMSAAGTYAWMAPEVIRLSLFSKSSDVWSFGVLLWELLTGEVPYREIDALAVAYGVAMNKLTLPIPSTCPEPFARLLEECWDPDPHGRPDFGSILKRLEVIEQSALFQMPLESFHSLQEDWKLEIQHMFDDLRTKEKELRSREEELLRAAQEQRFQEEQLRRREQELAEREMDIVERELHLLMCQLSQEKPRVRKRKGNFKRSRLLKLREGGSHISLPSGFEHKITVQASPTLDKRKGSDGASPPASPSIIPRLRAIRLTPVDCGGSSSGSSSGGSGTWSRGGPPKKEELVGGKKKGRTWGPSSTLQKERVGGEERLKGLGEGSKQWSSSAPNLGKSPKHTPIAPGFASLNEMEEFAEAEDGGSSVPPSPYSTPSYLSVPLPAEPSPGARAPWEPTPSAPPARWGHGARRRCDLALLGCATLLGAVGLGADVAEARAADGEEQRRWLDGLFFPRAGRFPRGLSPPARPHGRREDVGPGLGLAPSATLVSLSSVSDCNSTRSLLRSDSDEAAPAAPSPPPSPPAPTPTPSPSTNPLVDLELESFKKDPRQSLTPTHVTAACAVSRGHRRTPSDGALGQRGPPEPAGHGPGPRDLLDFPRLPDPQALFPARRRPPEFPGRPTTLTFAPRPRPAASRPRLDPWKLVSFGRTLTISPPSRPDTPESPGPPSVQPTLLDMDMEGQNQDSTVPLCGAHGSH
MLK1, sequence (P80192 whole entry, looked up): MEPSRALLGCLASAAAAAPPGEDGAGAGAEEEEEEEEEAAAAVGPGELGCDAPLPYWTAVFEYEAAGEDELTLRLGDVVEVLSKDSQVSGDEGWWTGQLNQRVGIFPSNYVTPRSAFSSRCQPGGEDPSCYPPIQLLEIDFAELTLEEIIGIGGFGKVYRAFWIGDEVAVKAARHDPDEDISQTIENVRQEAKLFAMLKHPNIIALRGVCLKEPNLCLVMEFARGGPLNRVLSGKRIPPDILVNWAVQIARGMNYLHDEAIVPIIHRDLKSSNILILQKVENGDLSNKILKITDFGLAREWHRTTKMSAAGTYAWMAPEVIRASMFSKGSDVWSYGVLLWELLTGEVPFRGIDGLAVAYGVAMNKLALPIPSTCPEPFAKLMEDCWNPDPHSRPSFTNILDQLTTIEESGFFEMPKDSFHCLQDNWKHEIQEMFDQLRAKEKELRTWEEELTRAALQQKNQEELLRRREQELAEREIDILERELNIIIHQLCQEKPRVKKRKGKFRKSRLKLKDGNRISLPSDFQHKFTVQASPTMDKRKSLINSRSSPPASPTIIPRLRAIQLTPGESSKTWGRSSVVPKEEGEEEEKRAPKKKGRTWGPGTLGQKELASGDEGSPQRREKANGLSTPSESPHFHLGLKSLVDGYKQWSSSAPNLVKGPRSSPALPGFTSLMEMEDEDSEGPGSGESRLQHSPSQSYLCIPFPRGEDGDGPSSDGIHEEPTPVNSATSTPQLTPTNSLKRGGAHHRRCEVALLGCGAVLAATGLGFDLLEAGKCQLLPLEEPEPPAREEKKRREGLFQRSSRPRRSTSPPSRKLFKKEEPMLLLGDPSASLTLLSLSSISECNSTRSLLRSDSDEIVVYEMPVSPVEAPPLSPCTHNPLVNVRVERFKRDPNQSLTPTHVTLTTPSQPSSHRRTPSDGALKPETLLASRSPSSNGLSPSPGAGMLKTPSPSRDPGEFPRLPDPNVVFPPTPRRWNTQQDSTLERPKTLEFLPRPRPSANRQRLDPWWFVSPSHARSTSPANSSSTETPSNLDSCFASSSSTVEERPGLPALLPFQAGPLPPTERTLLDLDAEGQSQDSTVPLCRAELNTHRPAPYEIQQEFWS

SMILES | inhibition at 10 µM [2] [%] | inhibition at 10 µM [7] [%] | inhibition at 10 µM [8] [%] | inhibition at 10 µM [9, 17] [%] | inhibition at 10 µM [10] [%] | inhibition at 10 µM [12, 18] [%] | IC50 ([13]; read-out: IC50(nM) MLK3) [nM] | IC50 [14] [nM] | inhibition at 10 µM ([16]; 10 μM, 72 hours, CCK-8) [%] | further results
CCS(=O)(=O)N1CC[C@H](Nc2c(Br)cnc3nc(-c4cc(C)n(-c5cccc(OCCN6CCOCC6)c5)c4C)[nH]c23)C1 [Example 3, (S)-6-bromo-2-(2,5-dimethyl-1-(3-(2-morpholinoethoxy)phenyl)-1H-pyrrol-3-yl)-N-(1-(ethylsulfonyl)pyrrolidine-3-yl)-1H-imidazo[4,5-b]pyridine-7-amine] | > 50 | > 50 | 10 to 50 | > 50 | > 50 | 10 to 50 | – | – | – | remaining binding at 0.1 µM ([1]; 100 nM): 3.5%; remaining binding at 0.5 µM ([1]; 500 nM): 0.9%; inhibition at 10 µM [3]: 10 to 50%; inhibition at 10 µM [4]: > 50%; remaining binding at 0.1 µM ([5]; 100 nM): 17%; remaining binding at 0.5 µM ([5]; 500 nM): 3.1%; Relative degree of expression inhibition (%) TGF-β1 [6]: 109.05%; Relative degree of expression inhibition (%) Fibronectin-1 [11]: 72.85%
CCS(=O)(=O)N1CC[C@H](Nc2c(Br)cnc3[nH]c(-c4cc(C)n(-c5ccc(C(=O)N6CCOCC6)cc5)c4C)nc23)C1 [Example 5, (S)-(4-(3-(6-bromo-7-((1-(ethylsulfonyl)pyrrolidine-3-yl)amino)-3H-imidazo[4,5-b]pyridine-2-yl)-2,5-dimethyl-1H-pyrrol-1-yl)phenyl) (morpholino) methanone] | – | – | – | – | – | – | 6 | 92 | – | –
CCS(=O)(=O)N1CC[C@H](Nc2c(Br)cnc3[nH]c(-c4cc(C)n(-c5cccc(C(=O)N6CCOCC6)c5)c4C)nc23)C1 [Example 6, (S)-(3-(3-(6-bromo-7-((1-(ethylsulfonyl)pyrrolidine-3-yl)amino)-3H-imidazo[4,5-b]pyridine-2-yl)-2,5-dimethyl-1H-pyrrol-1-yl)phenyl) (morpholino) methanone] | – | – | – | – | – | – | 6 | 181 | – | –
CCNS(=O)(=O)c1cccc(-n2c(C)cc(-c3nc4ncc(Br)c(N[C@H]5CCN(S(=O)(=O)CC)C5)c4[nH]3)c2C)c1 [Example 19, (S)-3-(3-(6-bromo-7-((1-(ethylsulfonyl)pyrrolidine-3-yl)amino)-1H-imidazo[4,5-b]pyridine-2-yl)-2,5-dimethyl-1H-pyrrol-1-yl)-N-ethylbenzenesulfonamide] | – | – | – | – | – | – | 14 | 90 | – | IC50 [15]: 36 nM; inhibition at 10 µM ([9]; 72 h, read-out: Cancer cell proliferation inhibitory activity Jurkat): > 50%; inhibition at 10 µM ([16]; 72 h): > 50%; inhibition at 10 µM ([12]; U-937, 72 h): > 50%
CCS(=O)(=O)N1CC[C@H](Nc2c(Br)cnc3nc(-c4cc(C)n(-c5ccc(OCCOC)cc5)c4C)[nH]c23)C1 [Example 22, (S)-6-bromo-N-(1-(ethylsulfonyl)pyrrolidine-3-yl)-2-(1-(4-(2-methoxyethoxy)phenyl)-2,5-dimethyl-1H-pyrrol-3-yl)-1H-imidazo[4,5-b]pyridine-7-amine] | – | – | – | – | – | – | 17 | 186 | 10 to 50 | IC50 [15]: 38 nM
Cc1cc(-c2nc3c(Nc4cccc(S(N)(=O)=O)c4)c(Br)cnc3[nH]2)c(C)n1-c1ccccc1Cl [Example 31, 3-((6-bromo-2-(1-(2-chlorophenyl)-2,5-dimethyl-1H-pyrrol-3-yl)-3H-imidazo[4,5-b]pyridine-7-yl)amino)benzenesulfonamide] | 10 to 50 | < 10 | > 50 | 10 to 50 | 10 to 50 | 10 to 50 | 35 | – | 10 to 50 | –
Cc1ccc(NS(C)(=O)=O)cc1-n1c(C)cc(-c2nc3c(Nc4cccc(S(N)(=O)=O)c4)c(Br)cnc3[nH]2)c1C [Example 33, 3-((6-bromo-2-(2,5-dimethyl-1-(2-methyl-5-(methylsulfonamido)phenyl)-1H-pyrrol-3-yl)-3H-imidazo[4,5-b]pyridine-7-yl)amino)benzenesulfonamide] | 10 to 50 | 10 to 50 | < 10 | 10 to 50 | < 10 | < 10 | 38 | – | 10 to 50 | –
Cc1cc(-c2nc3c(Nc4cccc(S(N)(=O)=O)c4)c(Br)cnc3[nH]2)c(C)n1-c1cc(Cl)ccc1Cl [Example 35, 3-((6-bromo-2-(1-(2,5-dichlorophenyl)-2,5-dimethyl-1H-pyrrol-3-yl)-3H-imidazo[4,5-b]pyridine-7-yl)amino)benzenesulfonamide] | 10 to 50 | 10 to 50 | > 50 | 10 to 50 | < 10 | 10 to 50 | – | – | 10 to 50 | IC50 [13]: 46 nM
Cc1cc(-c2nc3c(Nc4cccc(S(N)(=O)=O)c4)c(Br)cnc3[nH]2)c(C)n1-c1cccc(N2CCOCC2)c1 [Example 37, 3-((6-bromo-2-(2,5-dimethyl-1-(3-morpholinophenyl)-1H-pyrrol-3-yl)-3H-imidazo[4,5-b]pyridine-7-yl)amino)benzenesulfonamide] | 10 to 50 | > 50 | > 50 | 10 to 50 | < 10 | 10 to 50 | 47 | – | 10 to 50 | –
Cc1cc(-c2nc3ncc(Br)c(Nc4cccc(S(N)(=O)=O)c4)c3[nH]2)c(C)n1-c1cccc(OCCN2CCOCC2)c1 [Example 38, 3-((6-bromo-2-(2,5-dimethyl-1-(3-(2-morpholinoethoxy)phenyl)-1H-pyrrol-3-yl)-1H-imidazo[4,5-b]pyridine-7-yl)amino)benzenesulfonamide] | > 50 | 10 to 50 | > 50 | > 50 | > 50 | 10 to 50 | 52 | – | > 50 | –
Cc1cc(-c2nc3ncc(Br)c(Nc4cccc(S(N)(=O)=O)c4)c3[nH]2)c(C)n1-c1ccc(OCCN2CCOCC2)cc1 [Example 39, 3-((6-bromo-2-(2,5-dimethyl-1-(4-(2-morpholinoethoxy)phenyl)-1H-pyrrol-3-yl)-1H-imidazo[4,5-b]pyridine-7-yl)amino)benzenesulfonamide] | < 10 | 10 to 50 | 10 to 50 | > 50 | 10 to 50 | 10 to 50 | 72 | – | > 50 | –
Cc1cc(-c2nc3c(Nc4cccc(S(N)(=O)=O)c4)c(Br)cnc3[nH]2)c(C)n1-c1ccc(N2CCOCC2)cc1 [Example 40, 3-((6-bromo-2-(2,5-dimethyl-1-(4-morpholinophenyl)-1H-pyrrol-3-yl)-3H-imidazo[4,5-b]pyridine-7-yl)amino)benzenesulfonamide] | > 50 | 10 to 50 | > 50 | > 50 | 10 to 50 | 10 to 50 | 68 | – | 10 to 50 | –
